Assay results: ChEMBL document CHEMBL1144506, “Fujita-Ban QSAR analysis and CoMFA study of quinoline antagonists of immunostimulatory CpG-oligodeoxynucleotides” (Bioorg Med Chem, 2007)
Several values for one entry are separate records, joined by “and”; a condition that tells them apart may be missing. Equal entries are not always repeated.

test system: WEHI; assay: Inhibition of CpG-oligodeoxynucleotides-induced immunostimulation in mouse WEHI 231 cells; assay type: functional, cell-based; conditions: Mus musculus, WEHI

Row | Structure (SMILES) | EC50
1 | Cc1cccc(-c2cc(NCCC3CCCN3C)c3ccccc3n2)c1 (stereo not drawn) | 0.0141 µM
2 | CN(C)CCNc1cc(-c2ccc(CN3CCN(C)CC3)cc2)nc2ccccc12 | 0.00708 µM
3 | CN(C)CCCNc1cc(-c2ccc(N3CCN(C)CC3)cc2)nc2ccccc12 | 0.001 µM
4 | CCN1CCCC1CNc1cc(-c2ccc(F)cc2)nc2ccccc12 (stereo not drawn) | 0.017 µM
5 | Cc1cccc(-c2cc(NCCCN3CCOCC3)c3ccccc3n2)c1 | 0.0501 µM
6 | Cc1cccc(-c2cc(NCCN(C)C)c3ccccc3n2)c1 | 0.0724 µM
7 | CCN1CCCC1CNc1cc(-c2ccc(C)cc2)nc2ccccc12 (stereo not drawn) | 0.0219 µM
8 | CN1CCN(CCNc2cc(-c3ccc(F)cc3)nc3ccccc23)CC1 | 0.0186 µM
9 | Fc1ccc(-c2cc(NCCCN3CCOCC3)c3ccccc3n2)cc1 | 0.0676 µM
10 | Fc1ccc(-c2cc(NCCCCN3CCCC3)c3ccccc3n2)cc1 | 0.0209 µM
11 | Fc1ccc(-c2cc(NCCN3CCCC3)c3ccccc3n2)cc1 | 0.024 µM
12 | CN1CCN(c2ccc(-c3cc(NCCCN4CCOCC4)c4ccccc4n3)cc2)CC1 | 0.00219 µM
13 | CN1CCN(CCCNc2cc(-c3ccc(CN4CCN(C)CC4)cc3)nc3ccccc23)CC1 | 0.00676 µM
14 | Cc1ccc(-c2cc(NCCN(C)C)c3ccccc3n2)cc1 | 0.0123 µM
15 | CN1CCCC1CCNc1cc(-c2ccc(F)cc2)nc2ccccc12 (stereo not drawn) | 0.0132 µM
16 | CN1CCN(c2ccc(-c3cc(NCCC4CCCN4C)c4ccccc4n3)cc2)CC1 (stereo not drawn) | 0.002 µM
17 | Cc1cccc(-c2cc(NCCCN3CCN(C)CC3)c3ccccc3n2)c1 | 0.0275 µM
18 | CN(C)CCNc1cc(-c2ccc(N3CCCCC3)cc2)nc2ccccc12 | 0.00537 µM
19 | CN(C)CCCNc1cc(-c2ccc(N3CCCCC3)cc2)nc2ccccc12 | 0.0158 µM
20 | CN1CCN(CCNc2cc(-c3ccc(N4CCN(C)CC4)cc3)nc3ccccc23)CC1 | 0.00151 µM
21 | CN(C)CCCCNc1cc(-c2ccc(N3CCCCC3)cc2)nc2ccccc12 | 0.0468 µM
22 | Cc1ccc(-c2cc(NCCCN(C)C)c3ccccc3n2)cc1 | 0.0115 µM
23 | Cc1cccc(-c2cc(NCCCN(C)C)c3ccccc3n2)c1 | 0.0132 µM
24 | CN1CCN(Cc2cccc(-c3cc(NCCC4CCCN4C)c4ccccc4n3)c2)CC1 (stereo not drawn) | 0.00776 µM
25 | CN1CCN(c2cc(-c3ccc4ccccc4c3)nc3ccc(-c4ccccc4)cc23)CC1 | 0.741 µM
26 | COc1ccc(-c2cc(NCCN(C)C)c3ccccc3n2)cc1F | 0.0355 µM

Row | Structure (SMILES) | EC50
27 | CN(C)CCNc1cc(-c2ccc(C(F)(F)F)cc2)nc2ccc(F)cc12 | 0.407 µM
28 | CN(C)CCNc1cc(-c2ccccc2F)nc2ccc(F)cc12 | 0.417 µM
29 | c1cc(CNCCN2CCOCC2)cc(-c2cc(NCCCN3CCCC3)c3ccccc3n2)c1 | 0.537 µM
30 | Cc1ccccc1-c1cc(NCCCN2CCOCC2)c2ccccc2n1 | 0.646 µM
31 | Fc1ccc(-c2cc(NCCN3CCOCC3)c3ccccc3n2)cc1 | 0.417 µM
32 | CN(C)CCNc1cc(-c2cccc(F)c2)nc2cc(C(F)(F)F)ccc12 | 0.55 µM
33 | CN1CCN(c2ccc(-c3cc(NCCN4CCOCC4)c4ccccc4n3)cc2)CC1 | 0.00331 µM
34 | c1ccc2cc(-c3cc(NCCCN4CCOCC4)c4ccccc4n3)ccc2c1 | 0.00355 µM
35 | CN(C)CCNc1cc(-c2ccc3ccccc3c2)nc2ccc(-c3ccccc3)cc12 | 0.00646 µM
36 | Cc1ccc(-c2cc(NCCCN3CCCC3)c3ccccc3n2)cc1 | 0.105 µM
37 | CN(C)CCCCNc1cc(-c2ccccc2NCCN(C)C)nc2ccccc12 | 0.00589 µM
38 | Cc1cccc(-c2cc(NCCN3CCOCC3)c3ccccc3n2)c1 | 0.646 µM
39 | CN(C)CCNc1ccccc1-c1cc(NCCN(C)C)c2ccccc2n1 | 0.00646 µM
40 | Cc1ccc(-c2cc(Nc3ccc(O)cc3)c3ccccc3n2)cc1 | 0.151 µM
41 | CN(C)CCNc1cc(-c2ccccc2Cl)nc2ccccc12 | 0.162 µM
42 | CN(C)CCNc1cc(-c2ccccc2N2CCN(C)CC2)nc2ccccc12 | 0.0389 µM
43 | COc1ccc(-c2cc(NCCN(C)C)c3ccc(C(F)(F)F)cc3n2)cc1F | 0.407 µM
44 | Cc1ccc(-c2cc(NCCN3CCOCC3)c3ccccc3n2)cc1 | 0.49 µM
45 | CN(C)CCCNc1cc(-c2ccccc2F)nc2ccccc12 | 0.107 µM
46 | Cc1ccc(-c2cc(Nc3cc(CN4CCCC4)c(O)c(CN4CCCC4)c3)c3ccccc3n2)cc1 | 0.00178 µM
47 | CN1CCCC1CCNc1cc(-c2ccc3ccccc3c2)nc2ccccc12 (stereo not drawn) | 0.00204 µM
48 | CN(C)CCNc1cc(-c2ccccc2Cl)nc2ccc(Cl)cc12 | 0.468 µM
49 | c1cc(CNCCCN2CCOCC2)cc(-c2cc(NCCN3CCOCC3)c3ccccc3n2)c1 | 0.012 µM
50 | CN(C)CCCNc1cc(-c2cccc(CNCCCN3CCOCC3)c2)nc2ccccc12 | 0.0525 µM
51 | CN(C)CCCCCNc1cc(-c2ccc(F)cc2)nc2ccccc12 | 0.0155 µM
52 | CN1CCN(c2ccc(-c3cc(NCCN4CCCC4)c4ccccc4n3)cc2)CC1 | 0.0024 µM

Row | Structure (SMILES) | EC50
53 | CCN1CCCC1CNc1cc(-c2ccc3ccccc3c2)nc2ccccc12 (stereo not drawn) | 0.00537 µM
54 | c1ccc2cc(-c3cc(NCCCN4CCCC4)c4ccccc4n3)ccc2c1 | 0.0135 µM
55 | CN1CCN(CCCCNc2cc(-c3ccc(N4CCN(C)CC4)cc3)nc3ccccc23)CC1 | 0.0049 µM
56 | CN(C)CCCNc1cc(-c2cccc(CNCCN3CCOCC3)c2)nc2ccccc12 | 0.0204 µM
57 | CN(C)CCNc1cc(-c2ccc(N3CCN(C)CC3)cc2)nc2ccc(Cl)cc12 | 0.00145 µM
58 | CN(C)CCCCCCNc1cc(-c2ccc(N3CCN(C)CC3)cc2)nc2ccccc12 | 0.00191 µM
59 | CN(C)CCNc1cc(-c2ccc(F)cc2)nc2ccc(Cl)cc12 | 0.0525 µM
60 | CN(C)CCNc1cc(-c2ccccc2N2CCN(C)CC2)nc2ccc(F)cc12 | 0.0132 µM
61 | CCN(CC)CCNc1cc(-c2cccc(C)c2)nc2ccccc12 | 0.0224 µM
62 | CN(C)CCCCNc1cc(-c2ccc(N3CCN(C)CC3)cc2)nc2ccccc12 | 0.00123 µM
63 | Cc1ccc(-c2cc(Nc3cc(CN4CCN(C)CC4)c(O)c(CN4CCN(C)CC4)c3)c3ccccc3n2)cc1 | 0.00145 µM
64 | CN1CCN(c2ccc(-c3cc(NCCCCN4CCCC4)c4ccccc4n3)cc2)CC1 | 0.0055 µM
65 | CN1CCN(Cc2cccc(-c3cc(N4CCN(C)CC4)c4ccccc4n3)c2)CC1 | 0.1 µM
66 | CN(C)CCCNc1cc(-c2ccc(CN3CCN(C)CC3)cc2)nc2ccccc12 | 0.00912 µM
67 | CCN(CC)CCNc1cc(-c2ccc(C)cc2)nc2ccccc12 | 0.0186 µM
68 | Cc1ccc(-c2cc(NCCCN3CCOCC3)c3ccccc3n2)cc1 | 0.0269 µM
69 | CN(C)CCNc1cc(-c2ccc(N3CCN(C)CC3)cc2)nc2ccccc12 | 0.000759 µM
70 | CN1CCN(Cc2ccc(-c3cc(NCCN4CCCC4)c4ccccc4n3)cc2)CC1 | 0.00324 µM
71 | CN(C)CCCCCNc1cc(-c2ccc(N3CCN(C)CC3)cc2)nc2ccccc12 | 0.00145 µM
72 | CN1CCN(Cc2cc(Nc3cc(-c4ccc(F)cc4)nc4ccccc34)cc(CN3CCN(C)CC3)c2O)CC1 | 0.00174 µM
73 | CCN1CCCC1CNc1cc(-c2cccc(C)c2)nc2ccccc12 (stereo not drawn) | 0.0219 µM
74 | Cc1ccc(-c2cc(NCCCN3CCN(C)CC3)c3ccccc3n2)cc1 | 0.0138 µM
75 | CN(C)CCCNc1cc(-c2ccc3ccccc3c2)nc2ccccc12 | 0.011 µM
76 | Oc1c(CN2CCCC2)cc(Nc2cc(-c3ccc4ccccc4c3)nc3ccccc23)cc1CN1CCCC1 | 0.00115 µM
77 | CN(C)CCNc1cc(-c2ccc(F)cc2)nc2ccccc12 | 0.0513 µM
78 | CN(C)CCCCNc1cc(-c2ccccc2F)nc2ccccc12 | 0.107 µM

Row | Structure (SMILES) | EC50
79 | CN1CCCC1CCNc1cc(-c2ccccc2F)nc2ccccc12 (stereo not drawn) | 0.204 µM
80 | Cc1cccc(-c2cc(NCCCCN(C)C)c3ccccc3n2)c1 | 0.0138 µM
81 | CN(C)CCCNCc1cccc(-c2cc(NCCCN3CCN(C)CC3)c3ccccc3n2)c1 | 0.525 µM
82 | CN1CCN(c2ccccc2-c2cc(N3CCN(C)CC3)c3ccccc3n2)CC1 | 0.132 µM
83 | CN1CCN(CCCCNc2cc(-c3ccc(F)cc3)nc3ccccc23)CC1 | 0.0158 µM
84 | Cc1ccccc1-c1cc(NCCCN(C)C)c2ccccc2n1 | 0.186 µM
85 | CN(C)CCNc1cc(-c2ccc(F)cc2)nc2cc(C(F)(F)F)ccc12 | 0.49 µM
86 | CN(C)CCCCCCNc1cc(-c2ccc(F)cc2)nc2ccccc12 | 0.0204 µM
87 | CN(C)CCCNc1cc(-c2cccc(CN3CCN(C)CC3)c2)nc2ccccc12 | 0.00398 µM
88 | Fc1ccc(-c2cc(NCCCN3CCCC3)c3ccccc3n2)cc1 | 0.191 µM
89 | CN1CCN(Cc2ccc(-c3cc(N4CCN(C)CC4)c4ccccc4n3)cc2)CC1 | 0.0589 µM
90 | CN(C)CCNc1cc(-c2cccc(F)c2)nc2ccc(F)cc12 | 0.282 µM
91 | COc1ccc(C2C=C(NCCN(C)C)c3cc(F)ccc3N2)c(F)c1 (stereo not drawn) | 0.141 µM
92 | COc1ccc(-c2cc(NCCN(C)C)c3cc(F)ccc3n2)cc1F | 0.0794 µM
93 | CN1CCN(c2ccc(-c3cc(N4CCN(C)CC4)c4ccccc4n3)cc2)CC1 | 0.00269 µM
94 | CN1CCN(Cc2cccc(-c3cc(NCCCN4CCCC4)c4ccccc4n3)c2)CC1 | 0.12 µM
95 | Cc1cccc(-c2cc(NCCCN3CCCC3)c3ccccc3n2)c1 | 0.195 µM
96 | CN(C)CCCNCc1cccc(-c2cc(NCCN3CCOCC3)c3ccccc3n2)c1 | 0.155 µM
97 | CN(C)CCNc1cc(-c2ccc(C(F)(F)F)cc2)nc2ccccc12 | 0.155 µM
98 | CN(C)CCNc1cc(-c2ccc3ccccc3c2)nc2ccccc12 | 0.00912 µM
99 | Oc1ccc(Nc2cc(-c3ccc4ccccc4c3)nc3ccccc23)cc1 | 0.316 µM
100 | CN(C)CCCCNc1cc(-c2ccc3ccccc3c2)nc2ccccc12 | 0.00372 µM
101 | CN1CCN(Cc2cc(Nc3cc(-c4ccc5ccccc5c4)nc4ccccc34)cc(CN3CCN(C)CC3)c2O)CC1 | 0.00024 µM
102 | CN(C)CCCCCCNc1cc(-c2ccc3ccccc3c2)nc2ccccc12 | 0.00589 µM

same assay, conditions: wehi

Row | Structure (SMILES) | Log EC50
103 | CN(C)CCCCNc1cc(-c2ccc(F)cc2)nc2ccccc12 | -8.26 and -7.76
